According to ChEMBL document CHEMBL4800730 (2021):
Activity calls are given as the source filed them. The calls are words filed in the database; no cut-off is given here.

Key:
[1] = molecular target: Histamine H1 receptor (Homo sapiens) (UniProt P35367); conditions: Compound concentration 10.0 uM
[2] = molecular target: Serine/threonine-protein kinase D1 (Homo sapiens) (UniProt Q15139); assay: PRKD1 (PKC mu) SelectScreen Kinase panel (LifeTechnologies); conditions: Compound concentration 1.0 uM
[3] = molecular target: Protein kinase C beta type (Homo sapiens) (UniProt P05771); assay: PRKCB2 (PKC beta II) SelectScreen Kinase panel (LifeTechnologies); conditions: Compound concentration 1.0 uM
[4] = molecular target: Serine/threonine-protein kinase MARK2 (Homo sapiens) (UniProt Q7KZI7); assay: MARK2 SelectScreen Kinase panel (LifeTechnologies); conditions: Compound concentration 1.0 uM
[5] = molecular target: MAP kinase-activated protein kinase 2 (Homo sapiens) (UniProt P49137); assay: MAPKAPK2 SelectScreen Kinase panel (LifeTechnologies); conditions: Compound concentration 1.0 uM
[6] = molecular target: MAP kinase-activated protein kinase 3 (Homo sapiens) (UniProt Q16644); assay: MAPKAPK3 SelectScreen Kinase panel (LifeTechnologies); conditions: Compound concentration 1.0 uM
[7] = molecular target: 5-hydroxytryptamine receptor 3A (Homo sapiens) (UniProt P46098); conditions: Compound concentration 10.0 uM
[8] = molecular target: Alpha-2A adrenergic receptor (Homo sapiens) (UniProt P08913); conditions: Compound concentration 10.0 uM
Sequence of Alpha-2A adrenergic receptor (Homo sapiens) (P08913 whole entry): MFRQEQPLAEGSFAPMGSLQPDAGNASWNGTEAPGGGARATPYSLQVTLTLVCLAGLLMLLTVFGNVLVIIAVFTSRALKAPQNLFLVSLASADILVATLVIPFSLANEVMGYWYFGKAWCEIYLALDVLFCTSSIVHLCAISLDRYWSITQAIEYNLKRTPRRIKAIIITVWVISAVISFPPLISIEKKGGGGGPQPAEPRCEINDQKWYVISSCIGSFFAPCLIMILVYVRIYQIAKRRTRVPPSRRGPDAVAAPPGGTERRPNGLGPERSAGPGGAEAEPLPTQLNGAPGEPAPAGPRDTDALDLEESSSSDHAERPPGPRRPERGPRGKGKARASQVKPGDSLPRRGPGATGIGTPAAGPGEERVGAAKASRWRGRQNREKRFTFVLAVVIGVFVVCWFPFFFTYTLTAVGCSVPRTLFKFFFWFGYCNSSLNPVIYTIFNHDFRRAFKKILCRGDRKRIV

[9] = molecular target: Serine/threonine-protein kinase 4 (Homo sapiens) (UniProt Q13043); assay: STK4 (MST1) SelectScreen Kinase panel (LifeTechnologies); conditions: Compound concentration 1.0 uM
Sequence of Serine/threonine-protein kinase 4 (Homo sapiens) (Q13043 whole entry): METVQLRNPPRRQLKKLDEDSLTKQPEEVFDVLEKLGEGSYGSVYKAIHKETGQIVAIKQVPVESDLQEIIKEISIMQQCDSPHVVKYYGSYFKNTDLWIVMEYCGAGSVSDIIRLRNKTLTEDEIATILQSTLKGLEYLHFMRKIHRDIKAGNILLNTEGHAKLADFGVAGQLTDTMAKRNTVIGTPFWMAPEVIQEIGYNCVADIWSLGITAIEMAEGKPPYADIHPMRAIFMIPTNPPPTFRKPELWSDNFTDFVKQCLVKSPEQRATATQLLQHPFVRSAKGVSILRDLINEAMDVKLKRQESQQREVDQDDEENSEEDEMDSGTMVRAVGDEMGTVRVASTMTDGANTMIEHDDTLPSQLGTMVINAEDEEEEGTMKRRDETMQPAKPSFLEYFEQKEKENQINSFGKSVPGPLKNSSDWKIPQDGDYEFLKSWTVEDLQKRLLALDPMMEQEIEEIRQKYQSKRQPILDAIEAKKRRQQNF

[10] = molecular target: Sodium-dependent noradrenaline transporter (Homo sapiens) (UniProt P23975); conditions: Compound concentration 10.0 uM
[11] = molecular target: Alpha-2B adrenergic receptor (Homo sapiens) (UniProt P18089); conditions: Compound concentration 10.0 uM
[12] = molecular target: Tyrosine-protein kinase ABL1 (Homo sapiens) (UniProt P00519); assay: ABL1 SelectScreen Kinase panel (LifeTechnologies); conditions: Compound concentration 1.0 uM
[13] = molecular target: PAS domain-containing serine/threonine-protein kinase (Homo sapiens) (UniProt Q96RG2); assay: PASK SelectScreen Kinase panel (LifeTechnologies); conditions: Compound concentration 1.0 uM
[14] = tested on: T47D; assay: CellTiter-Glo luminescent cell viability assay (CTG) with T-47D cells; assay type: functional, cell-based; conditions: Homo sapiens
[15] = molecular target: Alpha-1A adrenergic receptor (Homo sapiens, UniProt P35348); assay: GPCRScan assay: inhibition of Alpha1A; parameters: radioligand conc. used [nm] 0.2 - 1.0, parental cells stable HEK
[16] = molecular target: Serine/threonine-protein kinase DCLK2 (Homo sapiens) (UniProt Q8N568); assay: DCAMKL2 (DCK2) SelectScreen Kinase panel (LifeTechnologies); conditions: Compound concentration 1.0 uM
[17] = molecular target: G protein-coupled receptor kinase 4 (Homo sapiens) (UniProt P32298); assay: GRK4 SelectScreen Kinase panel (LifeTechnologies); conditions: Compound concentration 1.0 uM
Sequence of G protein-coupled receptor kinase 4 (Homo sapiens) (P32298 whole entry, looked up): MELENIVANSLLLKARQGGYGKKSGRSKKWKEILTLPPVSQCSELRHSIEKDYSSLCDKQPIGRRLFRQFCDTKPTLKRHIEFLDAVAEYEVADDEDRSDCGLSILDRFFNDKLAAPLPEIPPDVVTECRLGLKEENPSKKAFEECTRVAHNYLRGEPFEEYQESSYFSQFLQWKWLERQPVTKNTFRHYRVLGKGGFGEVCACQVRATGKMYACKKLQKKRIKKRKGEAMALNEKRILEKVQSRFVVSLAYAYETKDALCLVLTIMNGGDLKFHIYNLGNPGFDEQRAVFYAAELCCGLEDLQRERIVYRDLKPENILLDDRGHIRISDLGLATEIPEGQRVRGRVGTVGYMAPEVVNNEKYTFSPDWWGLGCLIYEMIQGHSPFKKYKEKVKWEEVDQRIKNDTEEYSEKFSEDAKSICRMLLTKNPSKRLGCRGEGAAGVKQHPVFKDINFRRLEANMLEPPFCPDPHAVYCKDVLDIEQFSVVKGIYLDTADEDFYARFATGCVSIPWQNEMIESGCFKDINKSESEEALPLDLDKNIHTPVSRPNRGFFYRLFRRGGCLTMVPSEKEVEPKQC

[18] = molecular target: 5-hydroxytryptamine receptor 1E (Homo sapiens) (UniProt P28566); conditions: Compound concentration 10.0 uM
Sequence of 5-hydroxytryptamine receptor 1E (Homo sapiens) (P28566 whole entry): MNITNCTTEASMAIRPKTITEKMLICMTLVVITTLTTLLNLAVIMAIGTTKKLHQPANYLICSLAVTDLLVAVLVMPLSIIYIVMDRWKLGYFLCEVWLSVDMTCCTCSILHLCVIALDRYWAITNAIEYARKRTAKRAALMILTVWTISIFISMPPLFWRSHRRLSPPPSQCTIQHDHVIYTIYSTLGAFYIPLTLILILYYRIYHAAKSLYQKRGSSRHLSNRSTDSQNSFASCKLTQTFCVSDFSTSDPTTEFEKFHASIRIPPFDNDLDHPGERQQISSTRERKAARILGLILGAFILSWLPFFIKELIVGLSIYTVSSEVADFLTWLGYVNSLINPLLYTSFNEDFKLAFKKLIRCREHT

[19] = molecular target: Serine/threonine-protein kinase PAK 1 (Homo sapiens) (UniProt Q13153); assay: PAK1 SelectScreen Kinase panel (LifeTechnologies); conditions: Compound concentration 1.0 uM
[20] = tested on: BT-474; assay: CellTiter-Glo luminescent cell viability assay (CTG) with BT-474 cells; assay type: functional, cell-based; conditions: Homo sapiens
[21] = molecular target: Hepatocyte growth factor receptor (Homo sapiens) (UniProt P08581); assay: MET (cMet) SelectScreen Kinase panel (LifeTechnologies); conditions: Compound concentration 1.0 uM
[22] = molecular target: Serine/threonine-protein kinase TBK1 (Homo sapiens) (UniProt Q9UHD2); assay: TBK1 SelectScreen Kinase panel (LifeTechnologies); conditions: Compound concentration 1.0 uM
[23] = molecular target: Serine/threonine-protein kinase Nek1 (Homo sapiens) (UniProt Q96PY6); assay: NEK1 SelectScreen Kinase panel (LifeTechnologies); conditions: Compound concentration 1.0 uM
Sequence of Serine/threonine-protein kinase Nek1 (Homo sapiens) (Q96PY6 whole entry): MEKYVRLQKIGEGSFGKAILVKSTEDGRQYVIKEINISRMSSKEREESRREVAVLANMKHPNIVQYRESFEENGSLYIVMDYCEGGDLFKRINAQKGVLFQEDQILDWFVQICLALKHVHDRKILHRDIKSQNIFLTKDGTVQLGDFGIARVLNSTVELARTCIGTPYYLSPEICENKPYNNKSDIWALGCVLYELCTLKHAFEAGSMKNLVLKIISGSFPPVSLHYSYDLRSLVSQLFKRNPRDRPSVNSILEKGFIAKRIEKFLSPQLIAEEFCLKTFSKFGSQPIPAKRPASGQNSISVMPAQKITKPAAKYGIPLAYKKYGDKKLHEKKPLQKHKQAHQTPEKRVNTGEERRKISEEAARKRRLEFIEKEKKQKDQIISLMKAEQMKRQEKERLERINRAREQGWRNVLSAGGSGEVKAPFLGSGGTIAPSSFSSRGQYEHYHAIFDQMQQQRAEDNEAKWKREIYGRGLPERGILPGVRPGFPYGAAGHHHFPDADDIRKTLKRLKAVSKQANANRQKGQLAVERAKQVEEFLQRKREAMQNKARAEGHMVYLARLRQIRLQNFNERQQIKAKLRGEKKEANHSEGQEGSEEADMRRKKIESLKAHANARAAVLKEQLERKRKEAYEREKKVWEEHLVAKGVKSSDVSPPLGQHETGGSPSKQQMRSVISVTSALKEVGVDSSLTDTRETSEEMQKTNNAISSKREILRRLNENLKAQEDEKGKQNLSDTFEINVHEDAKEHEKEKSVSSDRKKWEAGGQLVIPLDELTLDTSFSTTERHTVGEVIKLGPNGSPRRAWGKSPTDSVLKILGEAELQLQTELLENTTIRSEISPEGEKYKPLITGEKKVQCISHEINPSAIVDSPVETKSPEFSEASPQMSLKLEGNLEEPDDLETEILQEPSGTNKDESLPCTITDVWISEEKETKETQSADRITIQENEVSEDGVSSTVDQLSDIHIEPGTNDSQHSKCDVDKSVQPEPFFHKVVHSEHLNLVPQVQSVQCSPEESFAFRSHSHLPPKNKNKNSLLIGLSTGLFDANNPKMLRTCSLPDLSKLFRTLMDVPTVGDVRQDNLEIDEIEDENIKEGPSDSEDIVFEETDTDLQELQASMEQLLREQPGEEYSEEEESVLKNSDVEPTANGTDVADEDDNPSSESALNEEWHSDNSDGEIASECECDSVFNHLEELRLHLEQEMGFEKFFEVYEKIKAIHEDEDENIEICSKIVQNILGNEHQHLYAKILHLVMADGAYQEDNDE

[24] = molecular target: GABA-A receptor; anion channel (Rattus norvegicus) (UniProt O09028+P15431+P18506+P18508+P19969+P20236+P23574+P23576+P28471+P28473+P30191+P62813+P63079+P63138+Q91ZM7+Q9ES14); conditions: Compound concentration 10.0 uM
[25] = molecular target: Protein kinase C theta type (Homo sapiens) (UniProt Q04759); assay: PRKCQ (PKC theta) SelectScreen Kinase panel (LifeTechnologies); conditions: Compound concentration 1.0 uM
Sequence of Protein kinase C theta type (Homo sapiens) (Q04759 whole entry, looked up): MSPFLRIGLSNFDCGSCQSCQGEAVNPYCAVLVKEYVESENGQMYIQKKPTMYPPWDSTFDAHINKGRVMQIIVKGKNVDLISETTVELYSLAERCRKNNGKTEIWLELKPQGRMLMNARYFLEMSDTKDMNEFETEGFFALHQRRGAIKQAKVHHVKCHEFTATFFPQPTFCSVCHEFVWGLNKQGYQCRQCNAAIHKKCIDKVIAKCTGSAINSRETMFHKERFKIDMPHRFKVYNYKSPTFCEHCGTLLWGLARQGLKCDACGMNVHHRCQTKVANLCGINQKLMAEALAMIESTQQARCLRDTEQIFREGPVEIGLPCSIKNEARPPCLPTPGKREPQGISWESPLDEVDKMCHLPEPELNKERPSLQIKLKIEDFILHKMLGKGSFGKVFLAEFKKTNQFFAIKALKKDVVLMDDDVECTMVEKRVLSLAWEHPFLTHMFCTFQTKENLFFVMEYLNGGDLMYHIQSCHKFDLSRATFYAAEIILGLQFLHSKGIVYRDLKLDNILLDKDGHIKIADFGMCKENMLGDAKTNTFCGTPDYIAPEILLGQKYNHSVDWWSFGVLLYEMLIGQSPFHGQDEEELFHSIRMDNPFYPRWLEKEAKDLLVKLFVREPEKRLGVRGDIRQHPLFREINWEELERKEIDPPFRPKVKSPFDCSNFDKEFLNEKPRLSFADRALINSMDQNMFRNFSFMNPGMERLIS

[26] = molecular target: Serine/threonine-protein kinase BRSK1 (Homo sapiens) (UniProt Q8TDC3); assay: BRSK1 (SAD1) SelectScreen Kinase panel (LifeTechnologies); conditions: Compound concentration 1.0 uM
[27] = molecular target: Serine/threonine-protein kinase Chk2 (Homo sapiens) (UniProt O96017); assay: CHEK2 (CHK2) SelectScreen Kinase panel (LifeTechnologies); conditions: Compound concentration 1.0 uM
[28] = molecular target: Receptor tyrosine-protein kinase erbB-2 (Homo sapiens) (UniProt P04626); assay: ERBB2 (HER2) SelectScreen Kinase panel (LifeTechnologies); conditions: Compound concentration 1.0 uM
[29] = molecular target: Serine/threonine-protein kinase mTOR (Homo sapiens) (UniProt P42345); assay: FRAP1 (mTOR) SelectScreen Kinase panel (LifeTechnologies); conditions: Compound concentration 1.0 uM
[30] = molecular target: Alpha-1B adrenergic receptor (Homo sapiens) (UniProt P35368); conditions: Compound concentration 10.0 uM
[31] = molecular target: cGMP-dependent protein kinase 1 (Homo sapiens) (UniProt Q13976); assay: PRKG1 SelectScreen Kinase panel (LifeTechnologies); conditions: Compound concentration 1.0 uM
[32] = molecular target: Rho-associated protein kinase 1 (Homo sapiens) (UniProt Q13464); assay: ROCK1 SelectScreen Kinase panel (LifeTechnologies); conditions: Compound concentration 1.0 uM
[33] = molecular target: Alpha-1D adrenergic receptor (Homo sapiens) (UniProt P25100); conditions: Compound concentration 10.0 uM
Sequence of Alpha-1D adrenergic receptor (Homo sapiens) (P25100 whole entry): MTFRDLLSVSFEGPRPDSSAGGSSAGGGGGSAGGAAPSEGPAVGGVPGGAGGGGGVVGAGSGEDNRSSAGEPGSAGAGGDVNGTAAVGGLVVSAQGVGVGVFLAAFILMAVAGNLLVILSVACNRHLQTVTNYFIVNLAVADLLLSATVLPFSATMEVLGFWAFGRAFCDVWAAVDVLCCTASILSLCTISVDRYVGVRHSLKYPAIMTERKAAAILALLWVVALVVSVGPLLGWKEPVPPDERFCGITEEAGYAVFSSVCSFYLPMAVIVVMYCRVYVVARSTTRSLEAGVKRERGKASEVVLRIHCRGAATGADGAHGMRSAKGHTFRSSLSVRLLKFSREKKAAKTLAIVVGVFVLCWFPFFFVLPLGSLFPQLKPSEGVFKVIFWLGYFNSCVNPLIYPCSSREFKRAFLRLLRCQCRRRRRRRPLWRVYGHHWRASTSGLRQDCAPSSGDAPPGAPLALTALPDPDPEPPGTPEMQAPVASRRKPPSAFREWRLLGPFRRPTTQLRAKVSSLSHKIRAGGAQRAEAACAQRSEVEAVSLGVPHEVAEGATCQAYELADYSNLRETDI

[34] = molecular target: 5-hydroxytryptamine receptor 2A (Homo sapiens) (UniProt P28223); conditions: Compound concentration 10.0 uM
[35] = molecular target: Angiopoietin-1 receptor (Homo sapiens) (UniProt Q02763); assay: TEK (Tie2) SelectScreen Kinase panel (LifeTechnologies); conditions: Compound concentration 1.0 uM
[36] = molecular target: Sodium-dependent dopamine transporter (Homo sapiens, UniProt Q01959); assay: GPCRScan assay: inhibition of DAT; parameters: radioligand conc. used [nm] 3.6 – 16.0, parental cells stable HEK
Sequence of Sodium-dependent dopamine transporter (Q01959 whole entry): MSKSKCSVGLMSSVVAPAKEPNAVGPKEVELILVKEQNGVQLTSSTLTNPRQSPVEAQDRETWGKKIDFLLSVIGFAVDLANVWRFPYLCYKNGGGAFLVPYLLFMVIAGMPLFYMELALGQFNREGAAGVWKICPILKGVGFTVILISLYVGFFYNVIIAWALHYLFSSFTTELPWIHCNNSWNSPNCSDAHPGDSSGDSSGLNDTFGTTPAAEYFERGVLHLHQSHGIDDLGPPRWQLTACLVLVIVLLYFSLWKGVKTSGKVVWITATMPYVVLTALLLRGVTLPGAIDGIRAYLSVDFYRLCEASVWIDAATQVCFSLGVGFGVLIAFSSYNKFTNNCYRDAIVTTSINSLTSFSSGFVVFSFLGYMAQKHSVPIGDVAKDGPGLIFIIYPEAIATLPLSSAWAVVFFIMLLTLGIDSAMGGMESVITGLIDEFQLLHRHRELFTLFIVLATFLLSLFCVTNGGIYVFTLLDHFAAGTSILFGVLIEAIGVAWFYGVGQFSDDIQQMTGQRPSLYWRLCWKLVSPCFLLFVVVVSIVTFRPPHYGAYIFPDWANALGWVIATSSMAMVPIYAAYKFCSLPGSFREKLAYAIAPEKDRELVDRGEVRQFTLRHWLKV

[37] = molecular target: Serine/threonine-protein kinase MRCK beta (Homo sapiens) (UniProt Q9Y5S2); assay: CDC42 BPB (MRCKB) SelectScreen Kinase panel (LifeTechnologies); conditions: Compound concentration 1.0 uM
[38] = molecular target: Aurora kinase B (Homo sapiens) (UniProt Q96GD4); assay: AURKB (Aurora B) SelectScreen Kinase panel (LifeTechnologies); conditions: Compound concentration 1.0 uM
[39] = molecular target: Beta-2 adrenergic receptor (Homo sapiens) (UniProt P07550); conditions: Compound concentration 10.0 uM
[40] = molecular target: Proto-oncogene tyrosine-protein kinase receptor Ret (Homo sapiens) (UniProt P07949); assay: RET SelectScreen Kinase panel (LifeTechnologies); conditions: Compound concentration 1.0 uM
[41] = molecular target: Protein kinase C delta type (Homo sapiens) (UniProt Q05655); assay: PRKCD (PKC delta) SelectScreen Kinase panel (LifeTechnologies); conditions: Compound concentration 1.0 uM
[42] = molecular target: Protein kinase C gamma type (Homo sapiens) (UniProt P05129); assay: PRKCG (PKC gamma) SelectScreen Kinase panel (LifeTechnologies); conditions: Compound concentration 1.0 uM
[43] = molecular target: Ribosomal protein S6 kinase alpha-4 (Homo sapiens) (UniProt O75676); assay: RPS6KA4 (MSK2) SelectScreen Kinase panel (LifeTechnologies); conditions: Compound concentration 1.0 uM

SMILES: C=CC(=O)Nc1ccc2[nH]c(=O)n(C3CCN(Cc4ccc(-c5nc6cc[nH]c(=O)c6cc5-c5ccccc5)cc4)CC3)c2c1 [Borussertib]
- inhibition [1]: 23.8%
- inhibition [2]: 10%
- inhibition [3]: 9%
- inhibition [4]: -2%
- inhibition [5]: 30%
- inhibition [6]: 17%
- inhibition [7]: 30.2%
- inhibition [8]: 9.04%
- inhibition [9]: -1%
- inhibition [10]: 4.49%
- inhibition [11]: 4.03%
- inhibition [12]: 2%
- inhibition [13]: 15%
- EC50 [14]: 0.05 µM (active)
- Ki [15]: 2.66 µM
- inhibition [16]: -2%
- inhibition [17]: 8%
- inhibition [18]: 18%
- inhibition [19]: -9%
- EC50 [20]: 0.37 µM (active)
- inhibition [21]: -2%
- inhibition [22]: 6%
- inhibition [23]: 8%
- inhibition [24]: 12.3%
- inhibition [25]: 35%
- inhibition [26]: 7%
- inhibition [27]: 4%
- inhibition [28]: -3%
- inhibition [29]: -9%
- inhibition [30]: 52.3%
- inhibition [31]: 5%
- inhibition [32]: 9%
- inhibition [33]: 22.1%
- inhibition [34]: -6.26%
- inhibition [35]: 13%
- Ki ([36]; read-out: Ki): 3.66 µM
- Ki ([36]; read-out: pKi (converted)): 3.63 µM
- inhibition [37]: 1%
- inhibition [38]: 7%
- inhibition [39]: 18.3%
- inhibition [40]: 7%
- inhibition [41]: -8%
- inhibition [42]: 17%
- inhibition [43]: 8%
